From patent publication US20220177508A1, “C10-Cyclic Substituted 13-Membered Macrolides and Uses Thereof” (Zikani Therapeutics, Inc., priority 2018, published 2022) come the findings set out here.

Common to all, as to assay type: cell-based
One assay relates to S. aureus MP-12. Kind of assay: Broth dilution MIC determination (CLSI), S. aureus MP-12. The note with it: Staphylococcus aureus, MP12; strain MP-12, broth dilution. In general terms: In broth dilution the organism is exposed to a series of concentrations in liquid medium.
In the next assay the test system is E. coli MP-4. Kind of assay: Broth dilution MIC determination (CLSI), E. coli MP-4. The note with it: Escherichia coli, MP4; strain MP-4, broth dilution; read-out: MIC E. coli MP-4.
A further assay concerns K. pneumoniae MP-546. Kind of assay: Broth dilution MIC determination (CLSI), K. pneumoniae MP-546. The note with it: Klebsiella pneumoniae, MP546; strain MP-546, broth dilution.
The test system of a further assay is P. aeruginosa MP-3. Kind of assay: Broth dilution MIC determination (CLSI), P. aeruginosa MP-3. The note with it: Pseudomonas aeruginosa, MP3; strain MP-3, broth dilution.
A further assay concerns A. baumannii MP-15. Kind of assay: Broth dilution MIC determination (CLSI), A. baumannii MP-15. The note with it: Acinetobacter baumannii, MP15; strain MP-15, broth dilution; read-out: MIC A. baumanii MP-15.

≈ marks a conversion by molar mass, not a printed value.

The term MIC denotes the lowest concentration found to suppress growth. As to `CO[C@]1(C)C[C@@H](C)CN(C)[C@H](C2CCNCC2)COC(=O)C(C)(C)C(=O)[C@H](C)[C@H]1O[C@@H]1O[C@H](C)C[C@H](N(C)C)[C@H]1O` [Compound 80, (3R,6R,8R,9R,10R)-9-(((2S,3R,4S,6R)-4-(dimethylamino)-3-hydroxy-6-methyltetrahydro-2H-pyran-2-yl)oxy)-8-methoxy-4,6,8,10,12,12-hexamethyl-3-(piperidin-4-yl)-1-oxa-4-azacyclotridecane-11,13-dione], the MIC is 4 to 32 µg/mL (≈ 6.85 to 54.8 µM) with S. aureus MP-12; less than 4 µg/mL in the assay with E. coli MP-4; 4 to 32 µg/mL (≈ 6.85 to 54.8 µM) in the assay on K. pneumoniae MP-546; greater than 32 µg/mL against P. aeruginosa MP-3; greater than 32 µg/mL in the assay with A. baumannii MP-15.

On to `CO[C@]1(C)C[C@@H](C)CN(C)[C@H](C2CCN(C)CC2)COC(=O)C(C)(C)C(=O)[C@H](C)[C@H]1O[C@@H]1O[C@H](C)C[C@H](N(C)C)[C@H]1O` [Compound 43, (3R,6R,8R,9R,10R)-9-(((2S,3R,4S,6R)-4-(dimethylamino)-3-hydroxy-6-methyltetrahydro-2H-pyran-2-yl)oxy)-8-methoxy-4,6,8,10,12,12-hexamethyl-3-(1-methylpiperidin-4-yl)-1-oxa-4-azacyclotridecane-11,13-dione], for which the MIC in the assay with S. aureus MP-12 was 4 to 32 µg/mL (≈ 6.69 to 53.5 µM); with E. coli MP-4 it was less than 4 µg/mL; in the assay with K. pneumoniae MP-546, less than 4 µg/mL; in the assay on P. aeruginosa MP-3 it was greater than 32 µg/mL; in the assay on A. baumannii MP-15 it was greater than 32 µg/mL.

Consider `CO[C@]1(C)C[C@@H](C)CN(C)[C@H]([C@@H]2CCN(CC(C)C)C2)COC(=O)C(C)(C)C(=O)[C@H](C)[C@H]1O[C@@H]1O[C@H](C)C[C@H](N(C)C)[C@H]1O` [Compound 123, (3R,6R,8R,9R,10R)-9-(((2S,3R,4S,6R)-4-(dimethylamino)-3-hydroxy-6-methyltetrahydro-2H-pyran-2-yl)oxy)-3-((R)-1-isobutylpyrrolidin-3-yl)-8-methoxy-4,6,8,10,12,12-hexamethyl-1-oxa-4-azacyclotridecane-11,13-dione], for which the MIC was 4 to 32 µg/mL (≈ 6.39 to 51.1 µM) with S. aureus MP-12; less than 4 µg/mL with E. coli MP-4; 4 to 32 µg/mL (≈ 6.39 to 51.1 µM) with K. pneumoniae MP-546; greater than 32 µg/mL against P. aeruginosa MP-3; greater than 32 µg/mL in the assay with A. baumannii MP-15.

In the case of `CO[C@]1(C)C[C@@H](C)CN(C)[C@@H]([C@@H]2CCN(CC(C)C)C2)COC(=O)C(C)(C)C(=O)[C@H](C)[C@H]1O[C@@H]1O[C@H](C)C[C@H](N(C)C)[C@H]1O` [Compound 110, (3S,6R,8R,9R,10R)-9-(((2S,3R,4S,6R)-4-(dimethylamino)-3-hydroxy-6-methyltetrahydro-2H-pyran-2-yl)oxy)-3-((R)-1-isobutylpyrrolidin-3-yl)-8-methoxy-4,6,8,10,12,12-hexamethyl-1-oxa-4-azacyclotridecane-11,13-dione], the MIC with S. aureus MP-12 was 4 to 32 µg/mL (≈ 6.39 to 51.1 µM); in the assay with E. coli MP-4, less than 4 µg/mL; in the assay with K. pneumoniae MP-546 it was less than 4 µg/mL; with P. aeruginosa MP-3, greater than 32 µg/mL; in the assay on A. baumannii MP-15, greater than 32 µg/mL.

Turning to `CCCN1CCC([C@H]2COC(=O)C(C)(C)C(=O)[C@H](C)[C@@H](O[C@@H]3O[C@H](C)C[C@H](N(C)C)[C@H]3O)[C@](C)(OC)C[C@@H](C)CN2C)CC1` [Compound 63, (3S,6R,8R,9R,10R)-9-(((2S,3R,4S,6R)-4-(dimethylamino)-3-hydroxy-6-methyltetrahydro-2H-pyran-2-yl)oxy)-8-methoxy-4,6,8,10,12,12-hexamethyl-3-(1-propylpiperidin-4-yl)-1-oxa-4-azacyclotridecane-11,13-dione], the MIC against S. aureus MP-12 is 4 to 32 µg/mL (≈ 6.39 to 51.1 µM); in the assay with E. coli MP-4, less than 4 µg/mL; in the assay on K. pneumoniae MP-546, less than 4 µg/mL; in the assay on P. aeruginosa MP-3 it was greater than 32 µg/mL; in the assay on A. baumannii MP-15, greater than 32 µg/mL.

`CO[C@]1(C)C[C@@H](C)CN(C)[C@H](C2CN(C(=O)CN3Cc4ccccc4C3)C2)COC(=O)C(C)(C)C(=O)[C@H](C)[C@H]1O[C@@H]1O[C@H](C)C[C@H](N(C)C)[C@H]1O` [Compound 10, (3R,6R,8R,9R,10R)-9-(((2S,3R,4S,6R)-4-(dimethylamino)-3-hydroxy-6-methyltetrahydro-2H-pyran-2-yl)oxy)-3-(1-(2-(isoindolin-2-yl)acetyl)azetidin-3-yl)-8-methoxy-4,6,8,10,12,12-hexamethyl-1-oxa-4-azacyclotridecane-11,13-dione]: the MIC in the assay with S. aureus MP-12 is 4 to 32 µg/mL (≈ 5.59 to 44.8 µM); in the assay with E. coli MP-4, less than 4 µg/mL; against K. pneumoniae MP-546, 4 to 32 µg/mL (≈ 5.59 to 44.8 µM); in the assay with P. aeruginosa MP-3, greater than 32 µg/mL; with A. baumannii MP-15, 4 to 32 µg/mL (≈ 5.59 to 44.8 µM).

Take `CN[C@H]1CC[C@H]([C@H]2COC(=O)C(C)(C)C(=O)[C@H](C)[C@@H](O[C@@H]3O[C@H](C)C[C@H](N(C)C)[C@H]3O)[C@](C)(OC)C[C@@H](C)CN2C)CC1` [Compound 26, (3S,6R,8R,9R,10R)-9-(((2S,3R,4S,6R)-4-(dimethylamino)-3-hydroxy-6-methyltetrahydro-2H-pyran-2-yl)oxy)-8-methoxy-4,6,8,10,12,12-hexamethyl-3-((1r,4S)-4-(methylamino)cyclohexyl)-1-oxa-4-azacyclotridecane-11,13-dione]: the MIC is greater than 32 µg/mL in the assay on S. aureus MP-12; 4 to 32 µg/mL (≈ 6.54 to 52.3 µM) in the assay on E. coli MP-4; greater than 32 µg/mL in the assay with K. pneumoniae MP-546; greater than 32 µg/mL against P. aeruginosa MP-3; greater than 32 µg/mL with A. baumannii MP-15.

On to `CO[C@]1(C)C[C@@H](C)CN(C)[C@H](C2CCN(CC(C)C)CC2)COC(=O)C(C)(C)C(=O)[C@H](C)[C@H]1O[C@@H]1O[C@H](C)C[C@H](N(C)C)[C@H]1O` [Compound 121, (3R,6R,8R,9R,10R)-9-(((2S,3R,4S,6R)-4-(dimethylamino)-3-hydroxy-6-methyltetrahydro-2H-pyran-2-yl)oxy)-3-(1-isobutylpiperidin-4-yl)-8-methoxy-4,6,8,10,12,12-hexamethyl-1-oxa-4-azacyclotridecane-11,13-dione], for which the MIC was 4 to 32 µg/mL (≈ 6.25 to 50 µM) with S. aureus MP-12; less than 4 µg/mL in the assay with E. coli MP-4; less than 4 µg/mL with K. pneumoniae MP-546; greater than 32 µg/mL against P. aeruginosa MP-3; greater than 32 µg/mL in the assay with A. baumannii MP-15.

For `CO[C@]1(C)C[C@@H](C)CN(C)[C@H](C2CCN(CC(F)(F)F)CC2)COC(=O)C(C)(C)C(=O)[C@H](C)[C@H]1O[C@@H]1O[C@H](C)C[C@H](N(C)C)[C@H]1O` [Compound 92, (3R,6R,8R,9R,10R)-9-(((2S,3R,4S,6R)-4-(dimethylamino)-3-hydroxy-6-methyltetrahydro-2H-pyran-2-yl)oxy)-8-methoxy-4,6,8,10,12,12-hexamethyl-3-(1-(2,2,2-trifluoroethyl)piperidin-4-yl)-1-oxa-4-azacyclotridecane-11,13-dione], the MIC in the assay on S. aureus MP-12 is 4 to 32 µg/mL (≈ 6.01 to 48.1 µM); in the assay on E. coli MP-4, 4 to 32 µg/mL (≈ 6.01 to 48.1 µM); against K. pneumoniae MP-546, greater than 32 µg/mL; in the assay with P. aeruginosa MP-3, greater than 32 µg/mL; in the assay on A. baumannii MP-15, greater than 32 µg/mL.

Consider `CO[C@]1(C)C[C@@H](C)CN(C)[C@H](C2CN(C(=O)CC(C)(C)CN(C)CC(C)C)C2)COC(=O)C(C)(C)C(=O)[C@H](C)[C@H]1O[C@@H]1O[C@H](C)C[C@H](N(C)C)[C@H]1O` [Compound 167, (3R,6R,8R,9R,10R)-9-(((2S,3R,4S,6R)-4-(dimethylamino)-3-hydroxy-6-methyltetrahydro-2H-pyran-2-yl)oxy)-3-(1-(4-(isobutyl(methyl)amino)-3,3-dimethylbutanoyl)azetidin-3-yl)-8-methoxy-4,6,8,10,12,12-hexamethyl-1-oxa-4-azacyclotridecane-11,13-dione], for which the MIC was 4 to 32 µg/mL (≈ 5.41 to 43.3 µM) in the assay on S. aureus MP-12; less than 4 µg/mL with E. coli MP-4; 4 to 32 µg/mL (≈ 5.41 to 43.3 µM) against K. pneumoniae MP-546; greater than 32 µg/mL in the assay on P. aeruginosa MP-3; greater than 32 µg/mL in the assay with A. baumannii MP-15.

In the case of `CNCC(=O)N1C2CCC1CC([C@@H]1COC(=O)C(C)(C)C(=O)[C@H](C)[C@@H](O[C@@H]3O[C@H](C)C[C@H](N(C)C)[C@H]3O)[C@](C)(OC)C[C@@H](C)CN1C)C2` (stereo partly drawn) [Compound 44, (3R,6R,8R,9R,10R)-9-(((2S,3R,4S,6R)-4-(dimethylamino)-3-hydroxy-6-methyltetrahydro-2H-pyran-2-yl)oxy)-8-methoxy-4,6,8,10,12,12-hexamethyl-3-(8-(methylglycyl)-8-azabicyclo[3.2.1]octan-3-yl)-1-oxa-4-azacyclotridecane-11,13-dione], the MIC against S. aureus MP-12 was greater than 32 µg/mL; in the assay with E. coli MP-4 it was 4 to 32 µg/mL (≈ 5.87 to 47 µM); against K. pneumoniae MP-546, greater than 32 µg/mL; in the assay on P. aeruginosa MP-3, greater than 32 µg/mL; in the assay on A. baumannii MP-15, greater than 32 µg/mL.

With `CO[C@]1(C)C[C@@H](C)CN(C)[C@H](C2CCN(C(=O)CN3CCCC3)CC2)COC(=O)C(C)(C)C(=O)[C@H](C)[C@H]1O[C@@H]1O[C@H](C)C[C@H](N(C)C)[C@H]1O` [Compound 9, (3R,6R,8R,9R,10R)-9-(((2S,3R,4S,6R)-4-(dimethylamino)-3-hydroxy-6-methyltetrahydro-2H-pyran-2-yl)oxy)-8-methoxy-4,6,8,10,12,12-hexamethyl-3-(1-(2-(pyrrolidin-1-yl)acetyl)piperidin-4-yl)-1-oxa-4-azacyclotridecane-11,13-dione], the minimal inhibitory concentration (MIC) with S. aureus MP-12 was greater than 32 µg/mL; with E. coli MP-4 it was 4 to 32 µg/mL (≈ 5.76 to 46 µM); against K. pneumoniae MP-546, 4 to 32 µg/mL (≈ 5.76 to 46 µM); in the assay with P. aeruginosa MP-3 it was greater than 32 µg/mL; with A. baumannii MP-15, greater than 32 µg/mL.

Consider `CO[C@]1(C)C[C@@H](C)CN(C)[C@@H](C2CN(C(=O)C(C)(C)N(C)C)C2)COC(=O)C(C)(C)C(=O)[C@H](C)[C@H]1O[C@@H]1O[C@H](C)C[C@H](N(C)C)[C@H]1O` [Compound 149], for which the MIC against S. aureus MP-12 was greater than 32 µg/mL; in the assay with E. coli MP-4, less than 4 µg/mL; against K. pneumoniae MP-546 it was 4 to 32 µg/mL (≈ 5.98 to 47.8 µM); with P. aeruginosa MP-3 it was greater than 32 µg/mL; in the assay with A. baumannii MP-15, greater than 32 µg/mL.

For the molecule `CCN(C)[C@H]1CC[C@H]([C@H]2COC(=O)C(C)(C)C(=O)[C@H](C)[C@@H](O[C@@H]3O[C@H](C)C[C@H](N(C)C)[C@H]3O)[C@](C)(OC)C[C@@H](C)CN2C)CC1` [Compound 157, (3S,6R,8R,9R,10R)-9-(((2S,3R,4S,6R)-4-(dimethylamino)-3-hydroxy-6-methyltetrahydro-2H-pyran-2-yl)oxy)-3-((1r,4S)-4-(ethyl(methyl)amino)cyclohexyl)-8-methoxy-4,6,8,10,12,12-hexamethyl-1-oxa-4-azacyclotridecane-11,13-dione], the MIC is greater than 32 µg/mL against S. aureus MP-12; 4 to 32 µg/mL (≈ 6.25 to 50 µM) in the assay with E. coli MP-4; 4 to 32 µg/mL (≈ 6.25 to 50 µM) in the assay with K. pneumoniae MP-546; greater than 32 µg/mL in the assay with P. aeruginosa MP-3; greater than 32 µg/mL in the assay with A. baumannii MP-15.
